Source: US8513027B2, “Method of identifying an inhibitor of the prostanoid EP4 receptor” (Asterand UK Acquisition Limited, priority 1998, dated 2013)

Columns and labels:
[1] = test system: human cerebral artery rings; test: tone of isolated human cerebral artery rings exposed to prostanoid receptor agonists; type: cell-based; details: for effect on smaller diameter cerebral artery rings contracted with phenylephrine, TP receptors blocked: phenylephrine 1 μM, GR32191 1 μM in bathing solution
Procedure: Sections of cerebral artery were removed from different regions of preparations of human cerebral vasculature containing an intact circle of Willis. Intact rings of this cerebral artery, 2-3 mm in length, were set up under isometric conditions in 10 ml organ baths under an initial tension of 1 g. All tissues were maintained at 37° C. and gassed constantly with 95% O2/5% CO2. Following a 90 min equilibration period all tissues were challenged with phenylephrine (1 μM), to determine tissue viability. Once a stable contraction had been obtained, tissues were exposed to a range of prostanoid receptor agonists, in the absence or presence of receptor antagonists, to determine the functional role of prostanoid receptors in maintaining arterial tone.

EP2 = EP2 (Homo sapiens, UniProt P43116); details: cited from earlier work
Sequence of EP2 (P43116 whole entry): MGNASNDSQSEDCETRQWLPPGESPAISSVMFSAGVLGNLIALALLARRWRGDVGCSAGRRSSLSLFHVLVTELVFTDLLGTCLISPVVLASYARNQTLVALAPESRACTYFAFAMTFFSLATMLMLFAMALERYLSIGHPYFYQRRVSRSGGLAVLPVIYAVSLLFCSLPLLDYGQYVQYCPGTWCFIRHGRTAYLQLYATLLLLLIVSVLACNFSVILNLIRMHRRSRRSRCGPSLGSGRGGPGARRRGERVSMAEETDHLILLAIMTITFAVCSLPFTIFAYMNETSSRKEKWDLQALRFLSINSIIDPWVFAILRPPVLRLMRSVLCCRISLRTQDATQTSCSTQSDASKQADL

EP1 = details: cited from earlier work
EP3 = molecular target: T1, EP3 (Homo sapiens, UniProt P43115); details: cited from earlier work
T1 sequence (P43115 1-390): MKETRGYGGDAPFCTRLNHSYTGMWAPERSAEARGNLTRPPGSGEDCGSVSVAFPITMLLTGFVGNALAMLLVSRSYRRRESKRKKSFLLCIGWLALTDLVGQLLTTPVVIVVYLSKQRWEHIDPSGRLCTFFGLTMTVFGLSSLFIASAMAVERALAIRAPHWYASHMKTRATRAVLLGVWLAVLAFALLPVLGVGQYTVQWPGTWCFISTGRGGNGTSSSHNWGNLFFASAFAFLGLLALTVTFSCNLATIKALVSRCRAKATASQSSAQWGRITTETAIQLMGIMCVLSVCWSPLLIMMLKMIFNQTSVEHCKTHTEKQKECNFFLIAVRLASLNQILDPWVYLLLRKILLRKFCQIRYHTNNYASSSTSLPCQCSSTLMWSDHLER

EP4 receptors = molecular target: T2, EP4 receptors (Sus scrofa, UniProt I3LLK4); details: blockade of EP4 receptors; cited from earlier work
T2 construct: providing a natural source of the receptors, such as piglet saphenous vein; from tissue; host or cells: piglet saphenous vein rings
T2 sequence (I3LLK4 1-489): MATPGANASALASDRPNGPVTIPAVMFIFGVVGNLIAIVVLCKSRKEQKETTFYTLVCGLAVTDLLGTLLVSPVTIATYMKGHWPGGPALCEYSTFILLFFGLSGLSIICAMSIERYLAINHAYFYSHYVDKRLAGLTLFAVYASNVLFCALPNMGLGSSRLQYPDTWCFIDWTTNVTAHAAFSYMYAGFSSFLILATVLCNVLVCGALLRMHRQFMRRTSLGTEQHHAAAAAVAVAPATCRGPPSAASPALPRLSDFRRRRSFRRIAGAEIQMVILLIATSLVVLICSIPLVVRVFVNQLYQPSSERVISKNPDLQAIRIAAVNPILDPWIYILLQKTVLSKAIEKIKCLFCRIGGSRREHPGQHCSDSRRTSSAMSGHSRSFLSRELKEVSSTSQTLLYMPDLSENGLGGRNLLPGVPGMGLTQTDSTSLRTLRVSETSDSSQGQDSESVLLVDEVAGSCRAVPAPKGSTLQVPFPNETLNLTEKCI

EP4 receptor = molecular target: T3, EP4 receptor (Homo sapiens, UniProt P35408); test: antagonism of PGE2-mediated relaxation of phenylephrine pre-contracted middle cerebral artery rings; type: cell-based; details: 10 mM AH23848, 45 mins; P=0.004
T3 construct: Intact rings of this cerebral artery, 2-3 mm in length, were set up under isometric conditions; from tissue; host or cells: human middle cerebral artery rings (one donor)
T3 sequence (P35408 whole entry): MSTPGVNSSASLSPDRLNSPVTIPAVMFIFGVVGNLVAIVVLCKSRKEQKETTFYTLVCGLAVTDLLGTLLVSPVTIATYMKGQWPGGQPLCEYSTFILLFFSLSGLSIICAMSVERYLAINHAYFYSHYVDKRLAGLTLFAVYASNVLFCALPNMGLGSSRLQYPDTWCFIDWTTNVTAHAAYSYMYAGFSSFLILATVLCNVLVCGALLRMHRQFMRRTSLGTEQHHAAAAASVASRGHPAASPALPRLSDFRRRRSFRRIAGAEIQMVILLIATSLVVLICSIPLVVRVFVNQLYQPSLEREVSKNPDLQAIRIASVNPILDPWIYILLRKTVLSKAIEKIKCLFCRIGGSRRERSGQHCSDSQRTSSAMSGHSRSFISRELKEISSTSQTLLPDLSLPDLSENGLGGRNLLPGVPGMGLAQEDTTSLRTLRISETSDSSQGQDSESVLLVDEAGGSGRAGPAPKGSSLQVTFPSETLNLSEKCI
Procedure: Sections of cerebral artery were removed from different regions of preparations of human cerebral vasculature containing an intact circle of Willis. […] Once a stable contraction had been obtained, tissues were exposed to a range of prostanoid receptor agonists, in the absence or presence of receptor antagonists, to determine the functional role of prostanoid receptors in maintaining arterial tone.
To test the effect of the EP4 receptor antagonist AH23848, cerebral rings were preincubated for 45 mins with 10 mM AH23848.

pulmonary artery = test: effect on pre-contracted pulmonary artery rings; type: cell-based, human; details: tone induced with U-46619 10-100 nM; n=3 donors
Procedure: (§1) Rings (2-4 mm internal diameter) were prepared from sections of pulmonary or coronary artery (n=3 each). They were mounted in organ baths under isometric conditions, in gassed Krebs solution (containing indomethacin) at 37° C., and 1-1.5 g initial tone.

coronary artery = test: effect on pre-contracted coronary artery rings; type: cell-based, human; details: n=3 donors; for relaxation of coronary artery: tone induced with phenylephrine 1-10 μM or endothelin-1
Procedure: as §1

CCCCCC(O)c1ccc([C@@H]2CCC(=O)[C@H]2CCCCCCC(=O)O)cc1 (relative stereo) [AH13205, trans-2-(4-[1-hydroxyhexyl]phenyl)-5-oxocyclopentaneheptanoate]
effect on smaller diameter cerebral artery rings contracted with phenylephrine, TP receptors blocked [1]: neither compound caused relaxation

O=C(O)CCC/C=C\C[C@@H]1C(N2CCOCC2)C(=O)C[C@@H]1OCc1ccc(-c2ccccc2)cc1 (stereo partly shown) [AH22921]
effect on EP2 receptor subtype (EP2): no effect
effect on EP1 receptor subtype (EP1): no effect
effect on EP3 receptor subtype (EP3): no effect
pA2 against PGE2-induced relaxation of piglet saphenous vein (EP4 receptors): 5.3

O=C(O)CC/C=C\CC[C@@H]1C(N2CCOCC2)C(=O)C[C@@H]1OCc1ccc(-c2ccccc2)cc1 (stereo partly shown) [AH23848]
shift of PGE2-mediated relaxation curve (EP4 receptor): significant rightward shift
effect on EP2 receptor subtype (EP2): no effect
effect on EP1 receptor subtype (EP1): no effect
effect on EP3 receptor subtype (EP3): no effect
pA2 against PGE2-induced relaxation of piglet saphenous vein (EP4 receptors): 5.4

CCCC1([C@H](O)C/C=C/[C@H]2[C@H](O)CC(=O)[C@@H]2CCCCCCC(=O)OC)CCC1 [Butaprost]
effect on smaller diameter cerebral artery rings contracted with phenylephrine, TP receptors blocked [1]: neither compound caused relaxation

CC#CCC(C)[C@H](O)/C=C/[C@@H]1[C@H]2C/C(=C/CCCC(=O)O)C[C@H]2C[C@H]1O (stereo partly shown) [Iloprost]
effect on smaller diameter cerebral artery rings contracted with phenylephrine, TP receptors blocked [1]: induced relaxation

CCCCC[C@H](O)/C=C/[C@H]1C(=O)C[C@H](O)[C@@H]1C/C=C\CCCC(=O)O [PGD2]
effect on smaller diameter cerebral artery rings contracted with phenylephrine, TP receptors blocked [1]: without effect

CCCCC[C@H](O)/C=C/[C@H]1[C@H](O)CC(=O)[C@@H]1C/C=C\CCCC(=O)O [PGE2, prostaglandin E2]
relaxation of pulmonary artery (pulmonary artery): did not cause relaxation
contraction of coronary artery (coronary artery; pre-contracted preparations): small contraction
relaxation of coronary artery (coronary artery): did not cause relaxation
relaxation of cerebral artery rings pre-contracted with U46619 or 5-HT ([1]; U46619 100 nM or 5-HT 300 nM and 1 μM, FIG. 2): maximal or near maximal relaxation
effect of removal of the endothelium on the relaxant response ([1]; human cerebral arteries): did not affect
effect on smaller pre-contracted cerebral vessels ([1]; internal diameter <1 mm, pre-contracted with phenylephrine): potent concentration-related relaxation
effect on larger cerebral vessels ([1]; internal diameter >1 mm): concentration-related contraction
concentration at which maximum relaxation occurs ([1]; vessel pre-contracted with phenylephrine, FIG. 1): below 10^−6 M

CCCCC[C@H](O)/C=C/[C@@H]1[C@@H](C/C=C\CCCC(=O)O)[C@@H](O)C[C@H]1O [PGF2α]
effect on smaller diameter cerebral artery rings contracted with phenylephrine, TP receptors blocked [1]: without effect

CCC#CC[C@H](C)[C@H](O)C#C[C@@H]1[C@H]2C/C(=C/COCC(=O)O)C[C@H]2C[C@H]1O [cicaprost]
relaxation of pulmonary artery (pulmonary artery): induced a relaxation
relaxation of coronary artery (coronary artery): induced a relaxation
effect on smaller diameter cerebral artery rings contracted with phenylephrine, TP receptors blocked [1]: induced relaxation
